Test results taken from publication PMC7551886, “Antitumour Effects of Astaxanthin and Adonixanthin on Glioblastoma” (Marine Drugs, 2020).

Key:
Type in all cases: cell-based, mouse
GL261 cells = test: BrdU cell proliferation assay; settings: GL261, temozolomide group (concentration not printed for this test); control group 60.56 ± 1.40%
Description: GL261 cells were seeded onto 96-well plates at a density of 2 × 10^3 cells/well with DMEM supplemented with 10% FBS and then incubated for 24 h, after which the culture medium was changed to DMEM containing 10% FBS. Then, astaxanthin, adonixanthin, or temozolomide (Tokyo Chemical Industry Co., Ltd., Tokyo, Japan) were added to the culture. After 72 h of culture, the culture medium was changed to DMEM containing 10% FBS and treated with BrdU at 10 µM for 3 h. After that, immunocytochemistry was performed according to the protocol of anti-BrdU antibody (abcam, ab6326).

p27 = test: Immunoblotting, p27 expression in GL261; settings: GL261, 300 µM temozolomide, 48 h
Description: (§1) GL261 cell was seeded at 2.5 × 10^4 cells per well in 24-well plates with culture medium supplemented with 10% FBS. After 24 h of incubation, the medium was changed to DMEM containing 10% FBS and 0.1%DMSO PBS, 300 μM temozolomide, 10 μM astaxanthin, or 10 μM adonixanthin was added for 6 and 48 h. Cells were lysed in a special buffer (RIPA buffer R0278; Sigma-Aldrich, St. Louis, MO, USA) with a protease inhibitor cocktail (Sigma-Aldrich), phosphatase inhibitor cocktails 2 and 3 (Sigma-Aldrich), and sample buffer (Wako, Osaka, Japan). The protein concentration was determined by comparison with a known concentration of bovine serum albumin using the BCA Protein Assay Kit (Thermo Fisher Scientific). The amount of total protein was 2 μg. Equal amounts of protein in sample buffer containing 10% 2-mercaptoethanol were subjected to sodium dodecyl sulphate polyacrylamide gel electrophoresis (SDS-PAGE) in 5-20% gradient gels (SuperSep Ace; Wako), and the separated proteins were transferred to polyvinylidene difluoride membrane (Immobilon-P; Merck Millipore Corporation, Bedford, MA, USA). After blocking for 30 min with Blocking One-P (Nacalai Tesque), we incubated the membranes with primary antibodies overnight at 4 °C. […] The band intensity was […] an Immuno Star LD (Wako). Band intensity was measured using an LAS-4000 UV mini Luminescent Image Analyzer (Fujifilm, Tokyo Japan) and Multi Gauge Version 3.0 (Fujifilm). The phosphorylation of ERK1/2, Akt, and p38 MAPK was measured by normalizing against total ERK1/2, total Akt, and total p38 MAPK. […]

Bcl-2 = test: Immunoblotting, Bcl-2 expression in GL261; settings: GL261, 300 µM, 48 h
Description: as §1

## Cn1nnc2c(C(N)=O)ncn2c1=O [temozolomide, reference compound]
GL261 cells
  BrdU-positive cell rate: 19.17 ± 1.77%
p27
  expression of p27: significantly reduced
Bcl-2
  expression of Bcl-2 vs. control: N.S.
